Assay results: patent US20110015068A1, “Herbicidal Compositions Comprising Pyroxasulfone V” (BASF SE, priority 2008, published 2011)

Tests used:
Type in all cases: in vivo
[1] = test system: Matricaria inermis; test: post-emergence greenhouse test, MATIN; conditions: 6.25 g ai/ha, 20 DAT, Table 4
Excerpt: (§1) For the post-emergence treatment, the test plants were first grown to a height of 3 to 20 cm, depending on the plant habit, and only then treated. Here, the herbicidal compositions were suspended or emulsified in water as distribution medium and sprayed using finely distributing nozzles.
(§2) The respective herbicides A and/or safener were formulated as 10% by weight strength suspension concentrate and introduced to the spray liquor with the amount of solvent system used for applying the active compound. Herbicide B and/or safener were used as commercially available formulations and introduced to the spray liquor with the amount of solvent system used for applying the active compound. In the examples, the solvent used was water.
(§3) The test period extended over 21 days. During this time, the plants were tended, and their response to the treatments with active compound was evaluated.
(§4) The evaluation for the damage caused by the chemical compositions was carried out using a scale from 0 to 100%, compared to the untreated control plants. Here, 0 means no damage and 100 means complete destruction of the plants.

[2] = test system: Digitaria sanguinalis; test: post-emergence greenhouse test, DIGSA; conditions: 3.13 g ai/ha, 20 DAT, Table 4
Excerpt: as §1, §2, §3, §4

[3] = test system: Galium aparine; test: post-emergence greenhouse test, GALAP
Excerpt: as §1, §2, §3, §4

[4] = test system: Chenopodium album; test: post-emergence greenhouse test, CHEAL
Excerpt: as §1, §2, §3, §4

[5] = test system: Lolium multiflorum; test: post-emergence greenhouse test, LOLMU; conditions: 12.5 g ai/ha, 20 DAT, Table 4
Excerpt: as §1, §2, §3, §4

[6] = test system: Setaria faberii; test: post-emergence greenhouse test, SETFA; conditions: 12.5 g ai/ha, 20 DAT, Table 4
Excerpt: as §1, §2, §3, §4

[7] = test system: Ipomoea purpurea; test: pre-emergence greenhouse test, PHBPU
Excerpt: (§5) For the pre-emergence treatment, directly after sowing the active compounds, which had been suspended or emulsified in water, were applied by means of finely distributed nozzles. The containers were irrigated gently to promote germination and growth and subsequently covered with transparent plastic hoods until plant had rooted. This cover caused uniform germination of the tests plants, unless this was adversely affected by active compounds.
as §2, §3, §4

[8] = test system: Sorghum halepense; test: post-emergence greenhouse test, SORHA; conditions: 1.6 g ai/ha
Excerpt: as §1, §2, §3, §4

[9] = test system: Echinochloa crus-galli; test: post-emergence greenhouse test, ECHCG
Excerpt: as §1, §2, §3, §4

[10] = test system: Setaria italica; test: post-emergence greenhouse test, SETIT
Excerpt: as §1, §2, §3, §4

[11] = test system: Galium aparine; test: pre-emergence greenhouse test, GALAP; conditions: 3.13 g ai/ha
Excerpt: as §5, §2, §3, §4

[12] = test system: Chenopodium album; test: pre-emergence greenhouse test, CHEAL; conditions: 3.13 g ai/ha
Excerpt: as §5, §2, §3, §4

[13] = test system: Kochia scoparia; test: pre-emergence greenhouse test, KCHSC; conditions: 12.5 g ai/ha
Excerpt: as §5, §2, §3, §4

[14] = test system: Kochia scoparia; test: post-emergence greenhouse test, KCHSC; conditions: 6.25 g ai/ha
Excerpt: as §1, §2, §3, §4

[15] = test system: Sorghum halepense; test: pre-emergence greenhouse test, SORHA; conditions: 3.13 g ai/ha
Excerpt: as §5, §2, §3, §4

[16] = test system: Ambrosia artemisifolia; test: pre-emergence greenhouse test, AMBEL; conditions: 12.5 g ai/ha
Excerpt: as §5, §2, §3, §4

[17] = test system: Xanthium strumarium; test: post-emergence greenhouse test, XANST
Excerpt: as §1, §2, §3, §4

[18] = test system: Solanum nigrum; test: post-emergence greenhouse test, SOLNI; conditions: 13 g ai/ha
Excerpt: as §1, §2, §3, §4

[19] = test system: Bromus inermis; test: pre-emergence greenhouse test, BROIN; conditions: 3.13 g ai/ha
Excerpt: as §5, §2, §3, §4

[20] = test system: Alopecurus myosuroides; test: pre-emergence greenhouse test, ALOMY; conditions: 12.5 g ai/ha
Excerpt: as §5, §2, §3, §4

[21] = test system: Setaria faberii; test: pre-emergence greenhouse test, SETFA
Excerpt: as §5, §2, §3, §4

[22] = test system: Polygonum convolvulus; test: post-emergence greenhouse test, POLCO
Excerpt: as §1, §2, §3, §4

[23] = test system: Alopecurus myosuroides; test: post-emergence greenhouse test, ALOMY
Excerpt: as §1, §2, §3, §4

[24] = test system: Setaria italica; test: pre-emergence greenhouse test, SETIT; conditions: 25 g ai/ha
Excerpt: as §5, §2, §3, §4

[25] = test system: Setaria lutescens; test: post-emergence greenhouse test, SETLU; conditions: 1.6 g ai/ha
Excerpt: as §1, §2, §3, §4

[26] = test system: Matricaria inermis; test: pre-emergence greenhouse test, MATIN; conditions: 6.25 g ai/ha
Excerpt: as §5, §2, §3, §4

With `C#CCN1C(=O)C(F)(F)Oc2cc(F)c(-n3c(=O)n(C)c(=S)n(C)c3=O)cc21` [compound V-1] as the compound, how does the “observed activity in % destruction” value [1] read?
The value was 90%.

And the “observed activity in % destruction” value [2]?
Its value is 35%.

And the “observed activity in % destruction” value ([3]; 3.13 g ai/ha, 20 DAT, Table 4)?
Its value is 30%.

What about the “observed activity in % destruction” value ([4]; 6.25 g ai/ha, 20 DAT, Table 4) of the same compound?
Its value is 60%.

And the “observed activity in % destruction” value [5]?
The value was 85%.

What about the “observed activity in % destruction” value [6] of the same compound?
Its value is 70%.

Which results are given for `CC(C)N(C)S(=O)(=O)NC(=O)c1cc(-n2c(=O)cc(C(F)(F)F)n(C)c2=O)c(F)cc1Cl` [saflufenacil]?
observed % activity ([7]; 3.13 g ai/ha, 8 DAT): 45%; observed % activity ([7]; 3.13 g ai/ha, 20 DAT): 50%; observed % activity ([7]; 6.25 g ai/ha, 8 DAT): 80%; observed % activity ([7]; 6.25 g ai/ha, 20 DAT): 80%; observed % activity ([8]; 8 DAT): 20%; observed % activity ([8]; 20 DAT): 35%; observed % activity ([9]; 1.6 g ai/ha, 8 DAT): 10%; observed % activity ([9]; 1.6 g ai/ha, 20 DAT): 0%; observed % activity ([9]; 6.25 g ai/ha, 8 DAT): 10%; observed % activity ([9]; 6.25 g ai/ha, 20 DAT): 0%; observed % activity ([9]; 13 g ai/ha, 8 DAT): 15%; observed % activity ([9]; 13 g ai/ha, 20 DAT): 0%; observed % activity ([10]; 3.1 g ai/ha, 8 DAT): 30%; observed % activity ([10]; 3.1 g ai/ha, 20 DAT): 15%; observed % activity ([10]; 6.25 g ai/ha, 8 DAT): 30%; observed % activity ([10]; 6.25 g ai/ha, 20 DAT): 20%; observed % activity ([11]; 8 DAT): 40%; observed % activity ([11]; 20 DAT): 40%; observed % activity ([3]; 1.6 g ai/ha, 8 DAT): 15%; observed % activity ([3]; 1.6 g ai/ha, 20 DAT): 20%; observed % activity ([3]; 3.1 g ai/ha, 8 DAT): 25%; observed % activity ([3]; 3.1 g ai/ha, 20 DAT): 20%; observed % activity ([3]; 6.25 g ai/ha, 8 DAT): 35%; observed % activity ([3]; 6.25 g ai/ha, 20 DAT): 30%; observed % activity ([3]; 13 g ai/ha, 8 DAT): 80%; observed % activity ([3]; 13 g ai/ha, 20 DAT): 70%; observed % activity ([12]; 8 DAT): 75%; observed % activity ([12]; 20 DAT): 60%; observed % activity ([4]; 6.25 g ai/ha, 8 DAT): 35%; observed % activity ([4]; 6.25 g ai/ha, 20 DAT): 35%; observed % activity ([4]; 13 g ai/ha, 8 DAT): 45%; observed % activity ([4]; 13 g ai/ha, 20 DAT): 35%; observed % activity ([13]; 8 DAT): 75%; observed % activity ([13]; 20 DAT): 80%; observed % activity ([14]; 8 DAT): 60%; observed % activity ([14]; 20 DAT): 30%; observed % activity ([15]; 8 DAT): 0%; observed % activity ([15]; 20 DAT): 0%; observed % activity ([16]; 8 DAT): 70%; observed % activity ([16]; 20 DAT): 80%; observed % activity ([17]; 1.6 g ai/ha, 8 DAT): 35%; observed % activity ([17]; 1.6 g ai/ha, 20 DAT): 45%; observed % activity ([17]; 3.1 g ai/ha, 8 DAT): 70%; observed % activity ([17]; 3.1 g ai/ha, 20 DAT): 75%; observed % activity ([17]; 6.25 g ai/ha, 8 DAT): 70%; observed % activity ([17]; 6.25 g ai/ha, 20 DAT): 80%; observed % activity ([18]; 8 DAT): 85%; observed % activity ([18]; 20 DAT): 85%; observed % activity ([19]; 8 DAT): 0%; observed % activity ([19]; 20 DAT): 0%; observed % activity ([20]; 8 DAT): 30%; observed % activity ([20]; 20 DAT): 30%; observed % activity ([21]; 6.25 g ai/ha, 8 DAT): 0%; observed % activity ([21]; 6.25 g ai/ha, 20 DAT): 35%; observed % activity ([21]; 12.5 g ai/ha, 8 DAT): 20%; observed % activity ([21]; 12.5 g ai/ha, 20 DAT): 35%; observed % activity ([22]; 1.6 g ai/ha, 8 DAT): 35%; observed % activity ([22]; 1.6 g ai/ha, 20 DAT): 30%; observed % activity ([22]; 13 g ai/ha, 8 DAT): 95%; observed % activity ([22]; 13 g ai/ha, 20 DAT): 98%; observed % activity ([23]; 1.6 g ai/ha, 8 DAT): 0%; observed % activity ([23]; 1.6 g ai/ha, 20 DAT): 0%; observed % activity ([23]; 6.25 g ai/ha, 8 DAT): 20%; observed % activity ([23]; 6.25 g ai/ha, 20 DAT): 0%; observed % activity ([23]; 13 g ai/ha, 8 DAT): 35%; observed % activity ([23]; 13 g ai/ha, 20 DAT): 15%; observed % activity ([24]; 8 DAT): 40%; observed % activity ([24]; 20 DAT): 55%; observed % activity ([25]; 8 DAT): 30%; observed % activity ([25]; 20 DAT): 10%; observed % activity ([26]; 8 DAT): 95%; observed % activity ([26]; 20 DAT): 98%
